Test results reported in patent publication USRE30241E, “Esters of 3-(hydroxy or hydroxymethyl)-4-hydroxyphenyl aminomethyl ketones” (Sterling Drug Inc., priority 1970, dated 1980).
Like-named read-outs stand apart in the source and are kept apart here.

How the values were obtained:
[1] = tested on: guinea pig bronchioles constricted by carbachol; test: Bronchodilator Test Method II, in vitro perfused guinea pig lung; conditions: for ED50: carbachol (Doryl) 1:5 million
Method: In this method bronchodilator activity in vitro was determined by testing the effect of graded doses of the test compounds on guinea pig bronchioles constricted by carbachol, using the technique reported by Sollman and von Oettingen, Proc. Soc, Exp. Biol. Med., 25,692 (1928) as modified by Tainter, Pedden, and James, J. Pharm. Exp. Ther., 51, 371 (1934) and by Luduena, von Euler, Tullar, and Lands, Arch. intern. Pharmacol., III, 392 (1957).

[2] = tested on: carbachol- or histamine-induced bronchoconstriction; test: Bronchodilator Test Method I, anesthetized dog, intravenous activity; format: in vivo; conditions: Canis lupus familiaris, read-out: Bronchodilatation; for inhibition in vivo at 0.005 mg/kg: 5 mcg/kg i.v.; for inhibition in vivo at 0.02 mg/kg: 20 mcg/kg i.v.; for inhibition in vivo at 0.04 mg/kg: 40 mcg/kg i.v.; for inhibition in vivo at 0.008 mg/kg: 8 mcg/kg i.v.; for inhibition in vivo at 0.032 mg/kg: 32 mcg/kg i.v.; for inhibition in vivo at 0.128 mg/kg: 128 mcg/kg i.v.
How it was run: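 Pentobarbital-anesthetized (30 mg/kg i.v.), open-chest, artificially ventilated dogs were given i.v. carbachol (4-6 µg/kg) or histamine diphosphate (35-45 µg/kg). Test compound was given i.v. mixed with, after, or 1-10 min before the constrictor.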

[3] = tested on: carbachol- or histamine-induced bronchoconstriction; test: Bronchodilator Test Method I, anesthetized dog, intraduodenal activity; format: in vivo; conditions: Canis lupus familiaris, read-out: Bronchodilation; for inhibition in vivo at 0.02 mg/kg: 20 mcg/kg (salt) intraduodenal; for inhibition in vivo at 0.08 mg/kg: 80 mcg/kg (salt) intraduodenal; for inhibition in vivo at 0.16 mg/kg: 160 mcg/kg (salt) intraduodenal; for inhibition in vivo at 0.032 mg/kg: 32 mcg/kg (salt) intraduodenal; for inhibition in vivo at 0.128 mg/kg: 128 mcg/kg (salt) intraduodenal
How it was run: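 Pentobarbital-anesthetized (30 mg/kg i.v.) open-chest dogs of 9-18 kg, artificially ventilated; airway pressure recorded via tracheal cannula transducer. Test solution injected intraduodenally; from 5 min, i.v. carbachol (4-6 μg/kg) or histamine diphosphate (35-45 μg/kg) challenges every 30-60 min gauged degree and duration of bronchodilation.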

heart rate = test: Cardiovascular studies: effect on the heart rate in the anesthetized dog; format: in vivo
Method: (§1) The effect of a rapid intravenous injection on the heart rate the heart rate was conducted in anesthetized dogs under normal respiration. A few open-chest dogs were also tested. Increase in heart rate was measured by using an electrocardiograph attached to the dog. Readings were taken every 0.5-1 minute for the first 10 minutes and every 2-5 minutes thereafter until recovery. In some cases, several doses and more than one compound were tested alternately in the same dog. The blood pressure effect was simultaneously recorded.

diastolic blood pressure = test: Effect on diastolic blood pressure in the anesthetized dog; format: in vivo
Method: as §1

## COc1ccc(C(=O)Oc2ccc(C(O)CNC(C)(C)C)cc2OC(C)=O)cc1 (stereo not drawn) [Example 145, 3-acetoxy-4-(p-anisoyloxy)-alpha-(tert-butylaminomethyl)benzyl alcohol methanesulfonate]
[1]
  ED50: 0.25 µg (base)
[1]; dose 1 mcg (base)
  Duration, Mean: > 72 min
[2]; 5 min, 5 min
  inhibition in vivo at 0.005 mg/kg: 65%
  inhibition in vivo at 0.02 mg/kg: 87%
  inhibition in vivo at 0.04 mg/kg: 98%
[2]; 0.5 h, 30 min
  inhibition in vivo at 0.005 mg/kg: 30%
  inhibition in vivo at 0.02 mg/kg: 45%
  inhibition in vivo at 0.04 mg/kg: 70%
[2]; 1 h, 60 min
  inhibition in vivo at 0.005 mg/kg: 24%
  inhibition in vivo at 0.02 mg/kg: 35%
  inhibition in vivo at 0.04 mg/kg: 68%
[2]; 2 h, 120 min
  inhibition in vivo at 0.005 mg/kg: 22%
  inhibition in vivo at 0.02 mg/kg: 27%
  inhibition in vivo at 0.04 mg/kg: 42%
[2]; 3 h, 180 min
  inhibition in vivo at 0.04 mg/kg: 38%
[2]; 4 h, 240 min
  inhibition in vivo at 0.04 mg/kg: 24%
[3]; 5 min, 5 min
  inhibition in vivo at 0.02 mg/kg: 33%
  inhibition in vivo at 0.08 mg/kg: 53%
  inhibition in vivo at 0.16 mg/kg: 82%
[3]; 0.5 h, 30 min
  inhibition in vivo at 0.02 mg/kg: 32%
  inhibition in vivo at 0.08 mg/kg: 48%
  inhibition in vivo at 0.16 mg/kg: 81%
[3]; 1 h, 60 min
  inhibition in vivo at 0.02 mg/kg: 32%
  inhibition in vivo at 0.08 mg/kg: 45%
  inhibition in vivo at 0.16 mg/kg: 81%
[3]; 2 h, 120 min
  inhibition in vivo at 0.02 mg/kg: 33%
  inhibition in vivo at 0.08 mg/kg: 49%
  inhibition in vivo at 0.16 mg/kg: 63%
[3]; 3 h, 180 min
  inhibition in vivo at 0.02 mg/kg: 29%
  inhibition in vivo at 0.08 mg/kg: 32%
  inhibition in vivo at 0.16 mg/kg: 48%
[3]; 4 h, 240 min
  inhibition in vivo at 0.02 mg/kg: 25%
  inhibition in vivo at 0.08 mg/kg: 30%
  inhibition in vivo at 0.16 mg/kg: 32%
[3]; 5 h, 300 min
  inhibition in vivo at 0.02 mg/kg: 23%
  inhibition in vivo at 0.16 mg/kg: 37%
Heart rate; 1.25 mcg/kg (salt) i.v.
  Mean Maximal Increase in the Heart Rate: 9%
Heart rate; 5.0 mcg/kg (salt) i.v.
  Mean Maximal Increase in the Heart Rate: 13%
Heart rate; 20 mcg/kg (salt) i.v.
  Mean Maximal Increase in the Heart Rate: 27%
Diastolic blood pressure; 1.25 meg/kg (salt) i.v.
  Mean Decrease in Diastolic Blood Pressure: 7%
Diastolic blood pressure; 5.0 meg/kg (salt) i.v.
  Mean Decrease in Diastolic Blood Pressure: 12%
Diastolic blood pressure; 20 meg/kg (salt) i.v.
  Mean Decrease in Diastolic Blood Pressure: 20%

## COc1ccc(C(=O)Oc2ccc(C(O)CNC(C)(C)C)cc2COC(C)=O)cc1 (stereo not drawn) [Example 151, 3-(acetoxymethyl)-4-(p-anisoyloxy)-alpha-(tert-butylaminomethyl)benzyl alcohol]
[1]
  ED50: 5.1 µg (base)
[1]; dose 10 mcg (base)
  Duration, Mean: 67.3 ± 33.7 min
[2]; 5 min, 5 min
  inhibition in vivo at 0.008 mg/kg: 43%
  inhibition in vivo at 0.032 mg/kg: 54%
  inhibition in vivo at 0.128 mg/kg: 85%
[2]; 0.5 h, 30 min
  inhibition in vivo at 0.008 mg/kg: 33%
  inhibition in vivo at 0.032 mg/kg: 46%
  inhibition in vivo at 0.128 mg/kg: 81%
[2]; 1 h, 60 min
  inhibition in vivo at 0.008 mg/kg: 50%
  inhibition in vivo at 0.032 mg/kg: 41%
  inhibition in vivo at 0.128 mg/kg: 81%
[2]; 2 h, 120 min
  inhibition in vivo at 0.008 mg/kg: 43%
  inhibition in vivo at 0.032 mg/kg: 54%
  inhibition in vivo at 0.128 mg/kg: 73%
[2]; 3 h, 180 min
  inhibition in vivo at 0.008 mg/kg: 30%
  inhibition in vivo at 0.032 mg/kg: 21%
  inhibition in vivo at 0.128 mg/kg: 69%
[2]; 4 h, 240 min
  inhibition in vivo at 0.032 mg/kg: 18%
  inhibition in vivo at 0.128 mg/kg: 64%
[2]; 4.5 h, 270 min
  inhibition in vivo at 0.008 mg/kg: 20%
  inhibition in vivo at 0.128 mg/kg: 52%
[3]; 5 min, 5 min
  inhibition in vivo at 0.032 mg/kg: 24%
  inhibition in vivo at 0.128 mg/kg: 54%
[3]; 0.5 h, 30 min
  inhibition in vivo at 0.032 mg/kg: 40%
  inhibition in vivo at 0.128 mg/kg: 63%
[3]; 1 h, 60 min
  inhibition in vivo at 0.032 mg/kg: 36%
  inhibition in vivo at 0.128 mg/kg: 66%
[3]; 2 h, 120 min
  inhibition in vivo at 0.032 mg/kg: 36%
  inhibition in vivo at 0.128 mg/kg: 66%
[3]; 3 h, 180 min
  inhibition in vivo at 0.032 mg/kg: 28%
  inhibition in vivo at 0.128 mg/kg: 66%
[3]; 5 h, 300 min
  inhibition in vivo at 0.032 mg/kg: 20%
  inhibition in vivo at 0.128 mg/kg: 43%
Heart rate; 32 mcg/kg (salt) i.v.
  Mean Maximal Increase in the Heart Rate: 18 Beats/Minute
Heart rate; 128 mcg/kg (salt) i.v.
  Mean Maximal Increase in the Heart Rate: 24 Beats/Minute
Diastolic blood pressure; 32 meg/kg (salt) i.v.
  Mean Decrease in Diastolic Blood Pressure: 10%
Diastolic blood pressure; 128 meg/kg (salt) i.v.
  Mean Decrease in Diastolic Blood Pressure: 10%
